Structures can show the parent of a compound that is named as a salt.
What was measured:
[1] = within 14 days of treatment; cited from earlier work
CTSL = type: cell-based, human; details: ARPE-19/HPV-16 cells, 10 μM drug, 24 hours
Procedure: The retinal pigment epithelia cell line, ARPE-19/HPV-16, was chosen to establish a database of drug profiles because of its non-cancerous, human origin, with a normal karyotype.
Cells were aliquoted on 96-well plates (˜2×10^5 cells/well) and incubated for 24 hours prior to providing fresh media with a drug, or the drug vehicle (water, dimethyl sulfoxide, ethanol, methanol, or phosphate-buffered saline solution). Drugs were diluted 1000-fold in buffered Advanced D-MEM/F-12 culture medium (Invitrogen, Carlsbad, CA) containing nonessential amino acids and 110 mg/L sodium pyruvate.
Cells were harvested 24 hours after treatment and RNA was extracted using the RNeasy 96 protocol (Qiagen, Valencia, CA). Gene expression for 22,238 probe sets of 12,490 genes was generated with U133A2.0 microarrays following the manufacturer's instructions (Affymetrix, Santa Clara, CA). Drugs were profiled in duplicate or triplicate, with multiple vehicle controls on each plate. A total of 708 microarrays were analyzed including 74 for 18 antipsychotics, 499 for 448 other compounds, and 135 for vehicle controls.
The raw scan data were first converted to average difference values using MAS 5.0 (Affymetrix). The average difference values of both treatment and control data were set to a minimum threshold of 50 if below 50. For each treatment instance, all probe sets were then ranked based on their amplitude, or level of expression relative to the vehicle control (or average of controls when more than one was used). Amplitude was defined as the ratio of expression (t−v)/[(t+v)/2] where t corresponds to treatment instance and v to vehicle instance.
Each drug group profile was created using a novel Weighted Influence Model, Rank of Ranks (WIMRR) method which underscores the rank of each probe set across the entire gene expression profile rather than the specific change in expression level. WIMRR takes the average rank of each probe set across all of the members of the group and then re-ranks the probe sets from smallest average rank to largest average rank. A gene-set enrichment metric based on the Kolmogorov-Smirnov (KS) statistic.
Applicant analyzed expression profile of CTSL across all 466 drugs tested. In order to find positive hits and selected only those results that caused decrease of CTSL expression by at least 33% (1.5-fold down).

FYCO1 = type: cell-based, human; details: ARPE-19 cells
[2] = sepsis-induced acute lung injury in rats; cited from earlier work
[3] = rats; cited from earlier work
[4] = people with nonalcoholic fatty liver disease; cited from earlier work
[5] = people with heart failure; cited from earlier work
[6] = people with diabetes; cited from earlier work
[7] = people with dyslipidemia; cited from earlier work
[8] = 230 ventilated patients with ALI; cited from earlier work
[9] = 492 patients; cited from earlier work
[10] = 404 ALI patients and 177 controls; cited from earlier work

| SMILES | log2(treated) CTSL (CTSL) [log2] | log2 difference (CTSL, treated vs control) (CTSL) [log2] | FYCO1 expression, Difference (treated vs control) (FYCO1) | FYCO1 expression, Treated (FYCO1) | other results |
| --- | --- | --- | --- | --- | --- |
| CC(C)c1c(C(=O)Nc2ccccc2)c(-c2ccccc2)c(-c2ccc(F)cc2)n1CC[C@@H](O)C[C@@H](O)CC(=O)O [Atorvastatin] | – | – | – | – | decrease of the level of CoQ10 [1]: 49% |
| CN1[C@@H]2CC[C@H]1C[C@@H](OC(=O)C(CO)c1ccccc1)C2 (some centres unmarked) [Atropine Sulfate] | 9.63 | −0.70 | – | – | – |
| NCC(CC(=O)O)c1ccc(Cl)cc1 (centres unmarked) [Baclofen] | 9.58 | −0.82 | −1.2190 | 6.7222 | – |
| CN(C)CCC(c1ccc(Br)cc1)c1ccccn1 (centres unmarked) [Brompheniramine Maleate] | 9.57 | −0.75 | – | – | – |
| COC1=C(OC)C(=O)C(C/C=C(\C)CC/C=C(\C)CC/C=C(\C)CC/C=C(\C)CC/C=C(\C)CC/C=C(\C)CC/C=C(\C)CC/C=C(\C)CC/C=C(\C)CCC=C(C)C)=C(C)C1=O [CoQ10, Coenzyme Q10] | – | – | – | – | pulmonary edema [2]: improved; survival [2]: improved; fibrosis in the lung and liver [3]: beneficial in attenuating fibrosis; liver and systemic markers of inflammation [4]: improves; mortality and cardiac markers [5]: improves; total cholesterol and low-density lipoprotein levels [6]: improve; endothelial dysfunction [7]: improve |
| O=C1NC(=O)C(c2ccccc2)(c2ccccc2)N1 [Phenytoin] | 9.56 | −0.70 | – | – | – |
| Cc1ccc(/C(=C\CN2CCCC2)c2ccccn2)cc1 [Triprolidine Hydrochloride] | 9.54 | −0.79 | −1.4935 | 6.4963 | – |
| COc1ccc2c(c1)c(CC(=O)O)c(C)n2C(=O)c1ccc(Cl)cc1 [indomethacin] | – | – | −1.539 | 4.949 | – |
| CCC1(c2ccccc2)C(=O)NCNC1=O [primidone] | – | – | −1.4959 | 6.4453 | – |
| CC(C)(C)C(=O)Oc1ccc(S(=O)(=O)Nc2ccccc2C(=O)NCC(=O)O)cc1 [sivelestat] | – | – | – | – | 30-day survival rate [8]: no significant effect; ICU stay [8]: shortened; duration of mechanical ventilation [8]: reduced; 28-day all-cause mortality [9]: no effect; ventilator free days [9]: no effect; number of ventilator free days [10]: significantly improved |
